Reference: ChEMBL document CHEMBL4673399, “Sigma-1 and Sigma-2 Receptor Modulators as Potential Therapeutics for Alzheimer's Disease” (ACS Med Chem Lett, 2021)

What was measured:
[1] = molecular target: Sigma non-opioid intracellular receptor 1 (Homo sapiens, UniProt Q99720); test: Binding affinity to sigma 1 receptor (unknown origin)
[2] = molecular target: Sigma intracellular receptor 2 (Homo sapiens, UniProt Q5BJF2); test: Binding affinity to sigma 2 receptor (unknown origin)
Chain of Sigma intracellular receptor 2 (Q5BJF2 whole entry): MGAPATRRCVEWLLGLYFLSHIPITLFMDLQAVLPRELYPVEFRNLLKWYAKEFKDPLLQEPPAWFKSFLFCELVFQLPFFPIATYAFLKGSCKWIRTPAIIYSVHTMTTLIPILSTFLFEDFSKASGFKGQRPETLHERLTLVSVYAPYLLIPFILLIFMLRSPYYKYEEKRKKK

Chain of Sigma non-opioid intracellular receptor 1 (Q99720 whole entry): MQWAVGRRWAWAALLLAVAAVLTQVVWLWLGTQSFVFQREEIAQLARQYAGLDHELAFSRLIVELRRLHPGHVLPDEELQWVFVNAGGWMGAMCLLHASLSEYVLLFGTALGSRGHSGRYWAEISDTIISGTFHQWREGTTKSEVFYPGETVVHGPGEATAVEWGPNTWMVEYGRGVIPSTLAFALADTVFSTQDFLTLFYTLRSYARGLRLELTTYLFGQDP

| Compound | Ki [1] | Ki [2] |
| --- | --- | --- |
| N#Cc1ccc(CCNC2CCc3nn4c(c3C2)C(=O)NCCC4)cc1 (stereo not given) | 1 µM | < 1 µM |
| CCCn1nc(C(=O)N2CCCCC2)c2c1CCN(CCc1cccc(C(F)(F)F)c1)C2 | 1 µM | < 1 µM |
| O=C1NCCn2nc3c(c21)CC(NCCc1ccc2c(c1)OCO2)CC3 (stereo not given) | 1 µM | 1 µM |
| CCCn1nc(C(=O)Nc2cccc(OC)c2)c2c1CCC(NCCc1ccncc1)C2 (stereo not given) | 1 µM | < 1 µM |
| O=C(c1nn(-c2ccccc2)c2c1CC(N1CCc3ccccc3C1)CC2)N1CCCCC1 (stereo not given) | 1 µM | 1 µM |
| O=C(c1nn(-c2ccccc2)c2c1CC(NCCc1ncc[nH]1)CC2)N1CCCCC1 (stereo not given) | 1 µM | < 1 µM |

Now from value to compound:

| Ki [1] | Ki [2] | Compound |
| --- | --- | --- |
| 1 µM | 1 µM | CN1CCn2nc3c(c2C1=O)CC(NCc1ccc(F)cc1)CC3 (stereo not given) |
| < 1 µM | 1 µM | CCCn1nc(C(=O)N2CCCCC2)c2c1CCN(CCc1ccc(F)cc1)C2 |
| < 1 µM | < 1 µM | N#Cc1ccc(CCNC2CCc3c(c(C(=O)N4CCCCC4)nn3-c3ccccc3)C2)cc1 (stereo not given) |
| < 1 µM | < 1 µM | O=C(c1nn(-c2ccccc2)c2c1CC(NCC1CCOCC1)CC2)N1CCCCC1 (stereo not given) |
